Values quoted from earlier work as cited in patent publication US6533967B1, “Initiating system for solid polyester granule manufacture” (Orica Australia Pty Ltd, priority 1999, dated 2003).

Test system: rat
Settings: inhalation of vapours, 4 h

SMILES: CCN(CC)c1ccccc1 [N,N-diethylaniline]
- LC50 rat: 1920 mg/m^3/4 h
